Results from patent US8377972B2, “Use of quaternary pyridinium compounds for vasoprotection and/or hepatoprotection” (Trigendo Sp. zo.o., priority 2007, dated 2013).
Entries after “also recorded” stand apart in the source; their conditions may differ. Like-named read-outs stand apart in the source and are kept apart here.

What was measured:
[1] = test system: platelet-rich thrombus; conditions: Table 2; known anti-thrombotic activity, documented in WO 2005/067927; cited from earlier work
[2] = Binding of pyridinium cations to sepharose-immobilized heparin (spectrophotometric); conditions: immobilized heparin 25 mg/mL, tested compounds 20÷100 μM in water, 5 minutes, room temperature
From the text: The presence of the heparin in the pyridinium salt solution changes the absorption spectrum of the salt through the non-specific electrostatic interactions of pyridinium cations with negatively charged heparin moieties. The use of water-insoluble sepharose-immobilized heparin which binds some fraction of pyridinium cations causes the decrease of the concentration of the salt in the solution.
At the high excess of the immobilized heparin in relation to the pyridinium salt concentration the degree of binding depends only on the heparin concentration. It allows, by using the experimental methodology described below, to estimate the degree of binding of different pyridinium compounds to heparin, provided that analogical concentrations of pyridinium salts and constant concentration of sepharose-immobilized heparin are used.
To estimate a degree of binding of the pyridinium_compounds with heparin spectrophotometric method based on the absorption measurements of aqueous solutions of tested compounds at 20÷100 μM before and after a contact with heparin was used.
The suspensions of immobilized heparin with the tested compounds were then placed into Eppendorf microtubes and centrifuged at 13 000 rpm for 4 minutes using FORCE 1418 microcentrifuge from Labnet Int. (Edison, N.J., USA). The UV-Vis absorption spectra of the resulting clear supernatants was measured with Perkin Elmer Lambda 40 spectrophotometer. All measurements were performed at room temperature. The degree of binding was estimated based on comparison of integrated area under the absorption curve for the solutions incubated and non-contacted with heparin.

[3] = test system: platelet-rich thrombus; experiment: Thrombolytic response in vivo in rats with extracorporeal circulation (thrombus on collagen strip); set-up: species or system Wistar rats; conditions: for Thrombolytic response: Table 3, trigonelline and its thermal decomposition products; for thrombolytic response (in words) / thrombolytic response, maxima: 30 mg/kg intravenous; for thrombolytic response (in words): Wistar rats
Description: Thrombolytic activity was assayed by the method developed originally by Gryglewski et al., (Gryglewski R J, Korbut R, Ocetkiewicz A, Stachura J. In vivo method for quantitation for anti-platelet potency of drugs. Naunyn Schmiedebergs Arch Pharmacol 1978; 302:25-30; Gryglewski R J 1978, Gryglewski et al., 2001). The scheme of the method is shown on FIG. 1.
Wistar rats (body weight of 300-350 g) were anaesthetised (thiopental 95 mg/kg i.p) and heparinised (800 U/kg i.v.). Caniules were placed in arteries and connected from the left carotid artery vein with a pressure sensor and from the right carotid artery through heated (37° C.) line to peristaltic pomp. The blood from carotid artery was pumped to the extracorporeal circulation were it superfused (1.5 ml/min) a 3 cm collagen strip excised from Achilles tendon hung on a spring-balanced auxotonic lever of a Harvard 386 isotonic transducer and the weight of the collagen strip was continuously registered. After superfusion the blood was returned to the circulation of an animal. During superfusion a thrombus made of platelets aggregates stuck in the fibrin network (microscopically visualized by the Weigert method) was formed on the surface of the collagen strip. A pressure and the thrombus weight were continuously recorded.
Then the trigonelline thermolysate, 1-methylpyridine or 1,4-dimethylpyridine were injected intravenously into the femoral vein (30 mg·kg^−1).

[4] = test system: Balb/c mice; experiment: Hepatoprotective effect in mice model of acute liver injury (Concanavalin A-induced hepatitis); type: in vivo; conditions: 100 mg/kg per os for 7 days, ConA 20 mg/kg i.v., 8 hours later
Description: Balb/c mice at the age of 2 months were treated for 7 days with 1,4-dimethylpyridinium chloride (100 mg/kg, per os) or were left untreated and then mice were injected with Concanavalin A (ConA) inducing T cell-mediated hepatitis. ConA was injected intravenously at a dose of 20 mg/kg and 8 hours later liver injury was assessed on the basis of transaminase (AST) level in plasma.

[5] = test system: Zucker fatty rats (fa/fa); experiment: Antidiabetic effects in the rat model of metabolic syndrome (glucose injection); type: in vivo; conditions: 7 days treatment (thermolysate 100 mg/kg, metformin 500 mg/kg), glucose 2 g/kg i.p., 0-90 minutes
Description: After 7 days glucose was injected at 2 g/kg (i.p.) and postprandial hyperglycemia was analyzed in the following periods: 0, 15, 30, 60 and 90 minutes after the injection of glucose.

| SMILES | Thrombolytic response [1] | Degree of binding [2] | thrombolytic response (in words) [3] | also measured |
| --- | --- | --- | --- | --- |
| Cn1cc(C(N)=O)ccc1=O [2-PYR, 1-methyl-2-pyridone-5-carboxamide] | no | >5% |  |  |
| Cc1cc[n+](C)cc1C(=O)[O-] [4MeTryg, 4-methyltrigonelline] |  | >5% |  |  |
| Cc1cccc[n+]1C [12-DMP^+, 1,2-dimethylpyridine] |  | >15% |  |  |
| Cc1cc[n+](C)cc1 [14-DMP^+, 1,4-dimethylpyridine] |  | >20% |  | Thrombolytic response [3]: yes; transaminase (AST) level in plasma after ConA injection [4]: prevented a rise in AST levels |
| CC(=O)c1ccc[n+](C)c1 [MAP^+, 1-methyl-3-acetyl-pyridine] | yes | >25% |  |  |
| C[n+]1cccc(C(=O)NCO)c1 [MNAF^+, 1-methyl-N′-(hydroxy-methyl) nicotinamide] | yes | >35% |  |  |
| C[n+]1cccc(C(N)=O)c1 [MNA^+, 1-methyl-nicotinamide] | yes | >45% |  |  |
| C[n+]1ccccc1 [MP^+, 1-methylpyridine] |  | >25% | moderate thrombolytic response | Thrombolytic response [3]: yes |
| NC(=O)c1cccnc1 [NA, nicotinamide] | no | ≈0% | lack of significant thrombolytic response | thrombolytic response, maxima [3]: 9±0.6% |
| O=C(O)c1cccnc1 [NC, nicotinic acid] | no | >40% | lack of significant thrombolytic response | thrombolytic response, maxima [3]: 5±0.9% |
| NC(=O)c1ccc[n+]([O-])c1 [N—OX, nicotinamide N-oxide] |  | >10% |  |  |
| C[n+]1cccc(C(=O)[O-])c1 [Tryg, trigonelline] |  | ≈0% | lack of significant thrombolytic response; also recorded: did not induce significant thrombolytic response | Thrombolytic response [3]: no |
| CN(C)C(=N)N=C(N)N [metformin] |  |  |  | postprandial hyperglycemia induced by glucose injection [5]: decreased postprandial hyperglycemia |
